Measurements reported in patent US9149539B1, “Crystalline naloxol-PEG conjugate” (priority 2010, dated 2015).

Experiment: Moisture uptake by dynamic vapor sorption (DVS)
Assay type: physicochemical

mPEG7-O-naloxol phosphate salt
Hysteresis between adsorption and desorption (DVS) (desorption): no hysteresis | Moisture uptake, DVS isotherm curve (whole isotherm): continuous (exponential) moisture uptake from the start
